Where “and” joins values, the source holds several entries; their conditions need not be identical. Identical values can stand only once. Toxic doses and inconclusive results are not listed. No stated cut-off is given here; in the data, active means T/C of 150% or more; inactive means T/C below 125%.
System: L1210 leukemia ip in BDF1 mice, survival T/C
Test: NCI In Vivo Anticancer Drug Screen. Data for tumor model L1210 Leukemia (intraperitoneal) in B6D2F1 (BDF1) mice
Details: endpoint: mean survival time, higher = longer survival
How it was run: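 Each compound was tested against a transplantable tumor grown in mice. The endpoint was survival, with treated animals benchmarked against vehicle controls as a simple ratio.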

[1] = dose: 25.0 mg/kg/injection, schedule: Q01DX009 (ip), vehicle: saline with Tween-80
[2] = dose: 50.0 mg/kg/injection, schedule: Q01DX009 (ip), vehicle: saline with Tween-80
[3] = dose: 100.0 mg/kg/injection, schedule: Q01DX009 (ip), vehicle: Klucel (hydroxypropylcellulose) (HPC)
[4] = dose: 100.0 mg/kg/injection, schedule: Q04DX003 (ip), vehicle: saline with Tween-80
[5] = dose: 200.0 mg/kg/injection, schedule: Q01DX009 (ip), vehicle: Klucel (hydroxypropylcellulose) (HPC)
[6] = dose: 200.0 mg/kg/injection, schedule: Q04DX003 (ip), vehicle: saline with Tween-80
[7] = dose: 400.0 mg/kg/injection, schedule: Q01DX009 (ip), vehicle: Klucel (hydroxypropylcellulose) (HPC)
[8] = dose: 100.0 mg/kg/injection, schedule: Q01DX001 (ip), vehicle: Klucel (hydroxypropylcellulose) (HPC)
[9] = dose: 200.0 mg/kg/injection, schedule: Q01DX001 (ip), vehicle: Klucel (hydroxypropylcellulose) (HPC)
[10] = dose: 400.0 mg/kg/injection, schedule: Q01DX001 (ip), vehicle: Klucel (hydroxypropylcellulose) (HPC)
[11] = dose: 100.0 mg/kg/injection, schedule: Q04DX003 (ip), vehicle: Klucel (hydroxypropylcellulose) (HPC)
[12] = dose: 200.0 mg/kg/injection, schedule: Q04DX003 (ip), vehicle: Klucel (hydroxypropylcellulose) (HPC)
[13] = dose: 400.0 mg/kg/injection, schedule: Q04DX003 (ip), vehicle: Klucel (hydroxypropylcellulose) (HPC)
[14] = dose: 100.0 mg/kg/injection, schedule: Q01DX001 (ip), vehicle: saline
[15] = dose: 100.0 mg/kg/injection, schedule: Q04DX002 (ip), vehicle: Klucel (hydroxypropylcellulose) (HPC)
[16] = dose: 200.0 mg/kg/injection, schedule: Q04DX002 (ip), vehicle: Klucel (hydroxypropylcellulose) (HPC)

Measured: T/C

CC(N)C(O)c1cccc(O)c1 (stereo not given)
inactive: dose: 6.25 mg/kg/injection, schedule: Q01DX009 (ip), vehicle: saline 117 % of control | dose: 12.5 mg/kg/injection, schedule: Q01DX009 (ip), vehicle: saline 100 % of control | dose: 25.0 mg/kg/injection, schedule: Q01DX009 (ip), vehicle: saline 105 % of control | dose: 25.0 mg/kg/injection, schedule: Q04DX003 (ip), vehicle: saline 108 % of control | dose: 50.0 mg/kg/injection, schedule: Q01DX009 (ip), vehicle: saline 100 % of control | dose: 50.0 mg/kg/injection, schedule: Q04DX003 (ip), vehicle: saline 105 % of control | dose: 100.0 mg/kg/injection, schedule: Q01DX009 (ip), vehicle: saline 117 % of control | dose: 100.0 mg/kg/injection, schedule: Q04DX003 (ip), vehicle: saline 97 % of control

CCOC(=O)CS(=O)c1c([N+](=O)[O-])ncn1C (stereo not given)
inactive: dose: 6.25 mg/kg/injection, schedule: Q01DX009 (ip), vehicle: saline with Tween-80 97 % of control | dose: 12.5 mg/kg/injection, schedule: Q01DX009 (ip), vehicle: saline with Tween-80 94 % of control | [1] 103 % of control

S=c1[nH]c2ccccc2s1
inactive: [1] 94 % of control | [2] 105 % of control | [3] 88 % of control | dose: 100.0 mg/kg/injection, schedule: Q01DX009 (ip), vehicle: saline with Tween-80 109 % of control | dose: 100.0 mg/kg/injection, schedule: Q04DX002 (ip), vehicle: saline 115 % of control | dose: 100.0 mg/kg/injection, schedule: Q04DX003 (ip), vehicle: other 96 % of control | [4] 96 % of control | [5] 100 % of control | dose: 200.0 mg/kg/injection, schedule: Q04DX002 (ip), vehicle: saline 112 % of control | dose: 200.0 mg/kg/injection, schedule: Q04DX003 (ip), vehicle: other 96 % of control | [6] 100 % of control | [7] 95 % of control | dose: 400.0 mg/kg/injection, schedule: Q04DX003 (ip), vehicle: other 101 % of control

CCCCCCCCCCCCCCCC[N+]1(C)CCS(C)(OS(=O)(=O)OC)CC1 (stereo not given)
inactive: dose: 6.25 mg/kg/injection, schedule: Q01DX001 (ip), vehicle: saline 95 % of control | dose: 12.5 mg/kg/injection, schedule: Q01DX001 (ip), vehicle: saline 88 % of control | dose: 25.0 mg/kg/injection, schedule: Q01DX001 (ip), vehicle: saline 88 % of control

CC1N=C(c2ccc(N)cc2)OC1C (stereo not given)
inactive: [8] 102 % of control | [9] 98 % of control | [10] 100 % of control

Cc1c(O)c2ccc(Cl)cc2n(C)c1=O
inactive: dose: 100.0 mg/kg/injection, schedule: Q04DX002 (ip), vehicle: saline with Tween-80 100 % of control | dose: 200.0 mg/kg/injection, schedule: Q04DX002 (ip), vehicle: saline with Tween-80 94 % of control | dose: 400.0 mg/kg/injection, schedule: Q04DX002 (ip), vehicle: saline with Tween-80 103 % of control

CCOc1cc(S(N)(=O)=O)ccc1Cl
inactive: dose: 100.0 mg/kg/injection, schedule: Q01DX001 (ip), vehicle: saline with Tween-80 89 % of control | dose: 200.0 mg/kg/injection, schedule: Q01DX001 (ip), vehicle: saline with Tween-80 93 % of control | dose: 400.0 mg/kg/injection, schedule: Q01DX001 (ip), vehicle: saline with Tween-80 96 % of control

CCn1c(=O)cc(C)c2ccccc21
inactive: dose: 75.0 mg/kg/injection, schedule: Q01DX001 (ip), vehicle: carboxymethylcellulose (CMC) 104 % of control | dose: 150.0 mg/kg/injection, schedule: Q01DX001 (ip), vehicle: carboxymethylcellulose (CMC) 104 % of control | dose: 300.0 mg/kg/injection, schedule: Q01DX001 (ip), vehicle: carboxymethylcellulose (CMC) 96 % of control

Cc1ccc(NS(=O)(=O)c2ccccc2)c(C)c1
inactive: [3] 99 % of control | [11] 104 % of control | [5] 99 % of control | [12] 95 % of control | [7] 94 % of control | [13] 98 % of control

CC1(c2ccc3ccccc3c2)OC(=O)c2ccccc21 (stereo not given)
inactive: [1] 106 % of control | [2] 91 % of control

Nc1nc(N)c2nonc2n1
inactive: dose: 12.5 mg/kg/injection, schedule: Q01DX005 (ip), vehicle: other 97 % of control | dose: 25.0 mg/kg/injection, schedule: Q01DX005 (ip), vehicle: other 90 % of control | dose: 50.0 mg/kg/injection, schedule: Q01DX005 (ip), vehicle: other 92 % of control | dose: 100.0 mg/kg/injection, schedule: Q01DX005 (ip), vehicle: other 89 % of control | dose: 200.0 mg/kg/injection, schedule: Q01DX005 (ip), vehicle: other 92 % of control

CC/C=C\CCCCCCO
inactive: dose: 100.0 mg/kg/injection, schedule: Q01DX001 (ip), vehicle: carboxymethylcellulose (CMC) 97 % of control and 94 % of control | dose: 200.0 mg/kg/injection, schedule: Q01DX001 (ip), vehicle: carboxymethylcellulose (CMC) 94 % of control | dose: 400.0 mg/kg/injection, schedule: Q01DX001 (ip), vehicle: carboxymethylcellulose (CMC) 89 % of control and 97 % of control

C=CCc1ccc(OC(=O)Nc2ccc(S(=O)(=O)N(C)C)cc2)c(OC)c1
inactive: [14] 94 % of control | dose: 200.0 mg/kg/injection, schedule: Q01DX001 (ip), vehicle: saline 91 % of control | dose: 400.0 mg/kg/injection, schedule: Q01DX001 (ip), vehicle: saline 91 % of control

Cc1cccc(C)c1NS(=O)(=O)c1ccccc1
inactive: [3] 104 % of control | [11] 101 % of control | [5] 101 % of control | [12] 103 % of control | [7] 98 % of control | [13] 104 % of control

COC(=O)c1cc(NC(=O)c2ccccc2F)cc(C(=O)OC)c1
inactive: dose: 100.0 mg/kg/injection, schedule: Q01DX009 (ip), vehicle: carboxymethylcellulose (CMC) 88 % of control | dose: 200.0 mg/kg/injection, schedule: Q01DX009 (ip), vehicle: carboxymethylcellulose (CMC) 90 % of control | dose: 400.0 mg/kg/injection, schedule: Q01DX009 (ip), vehicle: carboxymethylcellulose (CMC) 91 % of control

CCC(=O)n1ncc2ccc([N+](=O)[O-])cc21
inactive: [4] 103 % of control | [6] 88 % of control | dose: 400.0 mg/kg/injection, schedule: Q04DX003 (ip), vehicle: saline with Tween-80 93 % of control

CNc1ncnc2nc(Cl)[nH]c12
inactive: [14] 108 % of control

CC1CCN(C(=O)Nc2ccccc2)CC1
inactive: [15] 98 % of control | [16] 117 % of control | dose: 400.0 mg/kg/injection, schedule: Q04DX002 (ip), vehicle: Klucel (hydroxypropylcellulose) (HPC) 103 % of control

Nc1nc(N)c2[nH]c(CCCc3ccccc3)nc2n1
inactive: dose: 50.0 mg/kg/injection, schedule: Q04DX002 (ip), vehicle: Klucel (hydroxypropylcellulose) (HPC) 98 % of control | [15] 98 % of control | [16] 98 % of control

COc1ccc2c(c1)CCC1=C2CCC(C(=O)O)C1(C)C(=O)O (stereo not given)
inactive: [8] 97 % of control | [9] 108 % of control | [10] 92 % of control

Reference: PubChem BioAssay AID248 (DTP/NCI, 2004)
